Here are results for one compound from PMC5923269, “The Ustilago maydis repetitive effector Rsp3 blocks the antifungal activity of mannose-binding maize proteins” (Nature Communications, 2018).

The target of this experiment is T1, AFP1 (Anti-Fungal Protein 1; AFP1-His) (Zea mays, UniProt B4FUR2).
T1 construct: full-length with own signal peptide, secreted; C-terminal His tag; transient expression in Nicotiana benthamiana, NTA-purified from apoplastic fluid; two DUF26 domains
T1 sequence (B4FUR2 26-268): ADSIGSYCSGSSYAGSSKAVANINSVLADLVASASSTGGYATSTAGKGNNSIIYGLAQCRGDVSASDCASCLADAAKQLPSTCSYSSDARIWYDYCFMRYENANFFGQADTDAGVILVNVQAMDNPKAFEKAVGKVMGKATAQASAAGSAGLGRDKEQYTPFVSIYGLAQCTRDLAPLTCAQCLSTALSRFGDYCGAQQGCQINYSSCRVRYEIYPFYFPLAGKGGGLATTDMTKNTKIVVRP
Description: pull-down on mannose-agarose beads, anti-His western blot. Type of experiment: binding. Conditions: mannose immobilised on agarose; 10 mM Tris-HCl pH 7.5, 20 mM CaCl2, 1 M NaCl, 0.05% Tween-20, 4 °C, 1 h.

Take `OC[C@H]1OC(O)[C@@H](O)[C@@H](O)[C@@H]1O` (stereo partly shown) [mannose]: the “pull-down on mannose-agarose beads, anti-His western blot” value is “strong binding was observed for wild type AFP1-His”.
